Assay: gradient 5% acetonitrile 3 min, to 50% in 2 min, to 85% in 15 min, held 3 min, 100 µL/min
Settings: column: Zorbax Extend-C18 2.1 x 50 mm; eluents: water / acetonitrile, 0.1% formic acid
Summary of the method: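 Over 3 months, pure standards in mixtures of ~100 molecules were run by HPLC coupled to a quadrupole time-of-flight mass spectrometer in positive and negative ionization mode. The column was a Zorbax Extend-C18 (2.1 × 50 mm, 1.8 μm) at 100 μL/min, eluted with water and acetonitrile each holding 0.1% formic acid, with 40 μL dead and 900 μL dwell volumes. Retention time was determined from adduct peaks chosen by software and checked manually.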

RP-LC retention time [s] | SMILES
580 | CC(=O)NCC(=O)N1CCCn2cc(-c3ccccc3F)nc21
839 | O=C(Nc1nnc(SCC(=O)N2CCc3ccccc32)s1)NC1CCCCC1
836 | CC(CNC(=O)CN1C(=O)CCCc2ccccc21)c1ccccc1 (configuration not stated)
946 | Cc1ccc(-n2cccc2CC(=O)NCc2ccc3c(c2)OCO3)cc1
859 | COC(=O)c1c(NCc2ccccc2C)c2cccc(Cl)c2[nH]c1=O
634 | CC(C)CC(=O)N1CCN(c2nc(CN3CCC(C)CC3)cs2)CC1
1010 | Cc1ccc(CNC(=O)C2CCN(S(=O)(=O)c3cc(-c4noc(C5CC5)n4)sc3C)CC2)o1
765 | CCOC(=O)C1CCN(C(=O)c2ccc3c(c2)CCCN3S(C)(=O)=O)CC1
641 | COCCNC(=O)CSc1nc(-c2ccccc2)[nH]c1-c1ccccc1
1190 | O=c1c2cc(-c3ccc(F)cc3)nn2cnn1Cc1nc(-c2ccc(Cl)cc2)no1
643 | CCN1CCC2(CC1)OC(=O)C(C)=C2C(=O)NCc1ccc(Cl)cc1
697 | COc1c(C(=O)N2CCN(CC(C)C)CC2)sc2cc(Cl)ccc12
872 | CCCN1C(=O)COc2ccc(-c3noc(-c4cccc(NC(C)=O)c4C)n3)cc21
1160 | CCOc1ccc(-c2nc(Cc3noc(-c4ccc(C#N)cc4)n3)c(C)o2)cc1
586 | O=C(Cn1c(=O)n(-c2ccccc2)c2ncccc21)NCCCN1CCCC1
639 | O=C(NCc1ccccc1)C1CCN(c2cnc(N3CCCC3)nc2)CC1
585 | Cc1cc(C)c2c(n1)SCC(=O)N2CC(=O)NCCN(C)C1CCCCC1
856 | O=C(Nc1cnc(-c2ccccc2)nc1)C1CCC1
1030 | COc1ccc(S(=O)(=O)N2CCCC(C(=O)Nc3cccc(SC)c3)C2)cc1C (configuration not stated)
564 | COc1ccc(Cl)cc1NC(=O)NCCN1CCN(S(C)(=O)=O)CC1
668 | Cc1c(C(=O)NC2CC2)cnn1-c1cc(-c2nc(C(C)(C)C)no2)ccn1
608 | CC(=O)N1CCCC(CCc2nnc(C3CCOCC3)o2)C1 (configuration not stated)

RP-LC retention time [s] | SMILES
613 | CCCNC(=O)N1CCC2(CC1)NCCc1c2[nH]c2ccccc12
854 | COc1ccc(C(=O)NC2(c3nc(C)no3)CCCCC2)cc1F
794 | Cc1ccc(CN2CCN(CC(=O)NCCCc3ccccc3)C(=O)C2=O)cc1
620 | O=C(NCc1ccco1)N1CCN(Cc2nc3cccnc3n2-c2ccccc2)CC1
847 | O=C(Nc1cccc(Br)c1)N1CCC(N2CCN(Cc3ccccc3)C2=O)CC1
1010 | CC(C)Cn1cc(S(=O)(=O)Nc2ccc(F)cc2Cl)c2cccnc21
943 | CSc1ccc(-c2nc3nc(C)cc(C)n3c2Nc2ccc(C(C)C)cc2)cc1
778 | Cc1ccc(C)c(NC(=O)CSc2nnc3c4cc(-c5ccc(C)c(C)c5)nn4ccn23)c1
620 | CCC(=O)NC(c1ccc(N(C)C)cc1)c1ccc2cccnc2c1O (configuration not stated)
733 | CCn1cc(CCNS(=O)(=O)c2cccc(C#N)c2)c2cccnc21
610 | CN1CCc2nnc(C3CCN(C(=O)Nc4ccc(Cl)cc4C(F)(F)F)C3)n2CC1 (configuration not stated)
700 | Cc1cc(=O)n(CC(=O)Nc2ccc(F)c(F)c2)c(N2CCCCC2)n1
757 | C=Cc1ccc(CN2CCCN(c3ncccc3-c3nc(C4CC4)no3)CC2)cc1
656 | COCCN1C(=O)[C@H]2CN(Cc3cccc(Br)c3)C[C@H]2C1=O
1050 | O=C(Nc1ccc(Cl)c(C(F)(F)F)c1)C(=O)c1ccc[nH]1
970 | CCOC(=O)c1noc2ncnc(N3CCN(c4ccccc4OC)CC3)c12
835 | O=C(CC1CCN(C(=O)Nc2ccc(Br)cc2F)CC1)N1CCCCC1
1060 | Cc1ccc(-c2csc(NC(=O)c3ccc4c(c3)OCO4)n2)cc1
936 | CC(C)n1cc(S(=O)(=O)Nc2cc(F)cc(F)c2)c2cccnc21
636 | Cc1ccc(CNC(=O)C2CCCCC(=O)N2)o1 (configuration not stated)
879 | CCN(CC)C(=O)c1ccc2c(c1)N(CC(=O)NC1CCCCCCC1)C(=O)CS2
760 | Cc1ccc(Nc2nc(C)cc(N3CCN(S(=O)(=O)c4ccc5c(c4)OCCO5)CC3)n2)cc1

RP-LC retention time [s] | SMILES
669 | CCCCCc1cccnc1
728 | O=C(Cn1cnc2nc3c(cc2c1=O)CCCC3)NCCc1ccccc1
654 | COc1cc(OC)c(NC(=O)C2=C(C)C(=O)OC23CCN(C(C)C)CC3)cc1Cl
744 | CCCNC(=O)C1Cc2cc(S(=O)(=O)N3CCCCCC3)ccc2N1C(C)=O (configuration not stated)
548 | COc1ccc(CN2CCC(C3CCNC3)CC2)c(OC)c1 (configuration not stated)
802 | Cc1cc(=O)n(CC(=O)Nc2ccccc2F)c(N2CCc3ccccc3C2)n1
862 | O=C(Nc1ccc(Cl)cc1)C1CCCN(S(=O)(=O)c2c[nH]c(C(=O)N3CCCC3)c2)C1 (configuration not stated)
833 | CCC(C)NC(=O)Cn1c(=O)ccc2cc(S(=O)(=O)N3CCC(C)CC3)ccc21 (configuration not stated)
986 | NC(=O)c1cnc(-c2ccc(Cl)cc2)n(CC(=O)N2CCCc3ccccc32)c1=O
632 | Fc1ccc(-c2nc(-c3ccc4c(c3)ncn4CCN3CCOCC3)no2)cc1
1110 | Cc1ccc(CNC(=O)C2(C)CCCN(C(=O)Nc3ccc(Br)c(C)c3)C2)cc1 (configuration not stated)
684 | NS(=O)(=O)c1ccc(NC(=O)C2Cc3ccccc3C(=O)O2)cc1 (configuration not stated)
572 | O=C(O)c1cc(-c2ccncc2)nc2ccccc12
804 | COc1ccc(-c2c(C)noc2NC(C)=O)cc1S(=O)(=O)Nc1ccc(C)cc1C
559 | FC(F)(F)c1nc(N2CCN(C(c3ccccc3)c3ccccc3)CC2)nc2c1CCCCC2
887 | COc1cc(-c2noc(CCn3nc(-c4ccc(F)cc4)ccc3=O)n2)cc(OC)c1OC
683 | Cc1c(C2CCN(C(=O)NCc3ccc(F)cc3)CC2)noc1N
916 | O=C(O)c1ccc(OCCOc2ccccc2)cc1
687 | COc1cc(CNC(=O)C2CC(=O)N(c3ccc4oc(C)nc4c3)C2)cc(OC)c1 (configuration not stated)
887 | O=[N+]([O-])c1cccc(-c2nnc(-c3ccccc3)o2)c1
1050 | Fc1cccc(-n2cc(-c3noc(-c4ccccc4F)n3)nn2)c1
641 | O=c1c(O[C@@H]2OC([C@H](O)CO)[C@H](O)[C@H]2O)c(-c2ccc(O)c(O)c2)oc2cc(O)cc(O)c12 (some centres not stated)

SMILES | RP-LC retention time [s]
COc1ccc2c(c1)C1(CCN(S(=O)(=O)c3cccc(C)c3)C1)C(=O)N2 (configuration not stated) | 840
